Experimental data reported in patent US20040082600A1, “Pharmaceutical composition” (priority 2001, published 2004).
≈ marks a conversion by molar mass, not a printed value. Where two headings read alike, the source gives them in different places.

Test: Solubility in aqueous media
Assay type: physicochemical
Description: The compounds mentioned at the outset and pharmaceutically usable salts thereof, such as, for example, ethanolamine salts thereof, have low solubilities in aqueous media. […] These poor solubilities have the consequence that the compound can only be taken up slowly and to an inadequate extent by the body. This is associated with poor bioavailability and a slow increase in the concentration in the blood.

## COc1ccc(CNc2nc(C3CCC(C(=O)O)CC3)nc3sc4ccccc4c23)cc1Cl (centres unmarked) [4-[4-(3-Chloro-4-methoxybenzylamino)benzo[4,5]thieno[2,3-d]pyrimidin-2-yl]cyclohexanecarboxylic acid]
Aqueous buffer, phosphate buffer (pH 1.0), read-out: solubility
  solubility: 0.022 µg/mL (≈ 0.0456 µM)
Aqueous buffer, phosphate buffer (pH 6), read-out: solubility
  solubility: 0.0016 µg/mL (≈ 0.00332 µM)
Aqueous buffer, phosphate buffer (pH 7.0), read-out: solubility
  solubility: 0.019 µg/mL (≈ 0.0394 µM)
Synthetic gastric juice
  solubility: 1 mg/100 ml
Synthetic intestinal juice
  solubility: 6 mg/100 ml
